Bridge positions count the residues as written; N and C are the ends. Square brackets hold non-standard residues; d marks the D form. Ends that are not written are not given here.
Tests used:
D-VEGF [1] = experiment: Competition assay (phage ELISA) with VEGF binding peptides v114 and v128a on D-VEGF; details: 100 μM peptide; anti-M13-HRP detection
Experimental: (§1) To test whether the D-VEGF and L-VEGF binders have the potential to block VEGF-VEGFR1 interaction, a competition assay was performed using VEGF binding peptides v114 and v128a described by Fairbrother et al. (“Novel peptides selected to bind vascular endothelial growth factor target the receptor-binding site,” Biochemistry, 1998, 37, 17754-64). These peptides block the binding of VEGF to VEGFR1 and inhibit angiogenesis.
(§2) The peptides v114 ([…]-NH2; SEQ ID NO:296) and v128a ([…]-NH2; SEQ ID NO:297) were prepared in both D- and L-forms (CSBio, Inc.). The following protocol was used in the competitive binding assays: • 1. 5 wells of NUNC 96 well maxisorb plate were coated with D-VEGF (5 μg/ml in PBS) for testing clone E01. Similarly 5 wells were coated with L-VEGF (5 μg/ml in PBS) for each of E01 and B03. The plate was incubated at room temperature with gentle shaking for 2 hours; • 2. The plates were blocked with PBS+0.2% BSA (5 wells+1 extra well for control) for 1 hr at room temperature with gentle shaking; • 3. In the meantime, peptides were diluted in PBT buffer to a concentration of 150 μM; • 4. The plate was washed four times with PT buffer; • 5. 66 μl of each diluted peptide was added to 4 different wells coated with L or D-VEGF (depending on the clone tested). 66 μl of PBT was added to control wells (1 VEGF coated well+1 control well). Incubate for 30 min at room temperature with shaking; • 6. Add 33 μl of fresh phage supernatant from overnight culture to each of the six wells containing peptide solution. Incubate for 15 min at room temperature with shaking. • 7. Wash plate 6 times with PT buffer; • 8. Add 66 μl of anti-M13-HRP antibody (1:3000 dilution in PBT) to each well and incubate for 30 min at room temperature with shaking; • 9. Wash plate 4 times with PT buffer. Develop and read plates at 450 nm.
Phage binding to L and D-VEGF was tested in the presence and absence of 100 μM of each peptide (e.g., at 100 times affinity to saturate VEGF) using anti-M13-HRP to detect the bound phage.

D-VEGF [2] = experiment: SPR affinity measurements of GB1 peptidic compounds on immobilized D-VEGF; format: binding; details: target D-VEGF
Experimental: VEGF binding compounds were expressed. Binding affinities were measured using the […] SPR system. SPR analysis was performed on a ProteOn XPR36 Protein Interaction Array System (BioRad). Chemically synthesized L-VEGF, D-VEGF and VEGF165 (Peprotech) were immobilized in 50 mM Sodium Acetate (pH 5.5) to a non-dilute EDAC/sulfo-NHS activated GLC surface on separate channels using a flow rate of […] for 5 minutes in the vertical direction. Immobilization levels were monitored to ensure immobilization of approximately 500 response units of each protein. The domains were then stabilized with PBS for 30 seconds and 0.85% H3PO4 for 18 seconds each at […]. GB1 variants were diluted in PBS plus 0.05% Tween 20 at a starting concentration of 200 nM. The binders were further diluted with PBST 2-fold in series to produce 5 concentrations of variants. A PBST blank was also included. GB1 variant injection parameters were: […], 60 seconds contact time, and 600 seconds dissociation time, in the horizontal direction. VEGF proteins were regenerated with an injection of 0.85% H3PO4 at a flow rate of […] followed by a PBST wash of 30 seconds at […] flow rate.

D-VEGF [3] = experiment: Phage ELISA after overnight incubation with GuHCl or urea; format: binding; details: various concentrations of urea or GuHCl; phage incubated overnight
Experimental: During screening for specific binding to target, the presence of a chaotropic agent/denaturant can help select clones with improved stability and affinity. Phage were incubated overnight in the presence of various concentrations of GuHCl and urea and assayed using an ELISA method. […] Various concentrations GuHCl were added to selection wells prior to elution with 100 mM HCl. The selected clones were identified by competitive ELISA and analyzed for IC50 using similar protocols to those described above.

[4] = Melting temperature (Tm) by circular dichroism (CD); format: physicochemical; details: chemically synthesized compound; CD spectroscopy
Text: 4.3 Determination of Melting Temperature (Tm) by Circular Dichroism (CD)

L-VEGF = target: T1, L-VEGF (Homo sapiens, UniProt P15692); experiment: Competition assay (phage ELISA) with VEGF binding peptides v114 and v128a on L-VEGF; details: 100 μM peptide; anti-M13-HRP detection
T1 construct: Synthetic L-VEGF-A (8-109) was folded under the following conditions; made in house; host or cells: total chemical synthesis (SPPS plus native chemical ligation), no expression host
T1 sequence (P15692 214-315): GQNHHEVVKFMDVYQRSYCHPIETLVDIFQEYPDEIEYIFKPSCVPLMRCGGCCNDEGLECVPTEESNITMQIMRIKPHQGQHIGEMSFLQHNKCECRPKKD
Experimental: as §1
as §2, with “Incubate for 30 min at room temperature with shaking; • 6. Add 33 μl of fresh phage supernatant from overnight culture to each of the six wells containing peptide solution. Incubate for 15 min at room temperature with shaking. • 7. Wash plate 6 times with PT buffer; • 8. Add 66 μl of anti-M13-HRP antibody (1:3000 dilution in PBT) to each well and incubate for 30 min at room temperature with shaking; • 9. Wash plate 4 times with PT buffer.” left out, “nm. […]” for “nm.”

[5] = Table 2, GB1-E01 double mutants

Substance: E01: pre-affinity matured parent D-VEGF binding GB1 clone, SEQ ID NO:79 (TYKLILNGKTLKGETTTEAVDVYDAFDVFFVYAASNFSDFDDWTYDDATKTFTVTE) [Clone E01]
- phage binding to D-VEGF in the presence of D-v114 (D-VEGF [1]): completely blocked
- phage binding to D-VEGF in the presence of D-v128a (D-VEGF [1]): partially blocked
- phage binding to D-VEGF in the presence of L-peptides (L-v114, L-v128a) (D-VEGF [1]): do not inhibit
- Kd (D-VEGF [2]; Table 1): 13.4 nM
- Koff (D-VEGF [2]; Table 1): 0.00347 s⁻¹
- Kon (D-VEGF [2]; Table 1, E01 point mutants expressed in E. coli): 260000 M⁻¹ s⁻¹
- Kd (D-VEGF [2]; [5]): 3.46 nM
- Koff (D-VEGF [2]; [5]): 0.00117 s⁻¹
- Kon (D-VEGF [2]; [5]): 338000 M⁻¹ s⁻¹

Substance: TYKMILNGKTLKSECTTEAVDLFDAFDVLFVCAASNFSFIDDWTYDDATKTFTVTE ([dT][dY][dK][dM][dI][dL][dN]G[dK][dT][dL][dK][dS][dE][dC][dT][dT][dE][dA][dV][dD][dL][dF][dD][dA][dF][dD][dV][dL][dF][dV][dC][dA][dA][dS][dN][dF][dS][dF][dI][dD][dD][dW][dT][dY][dD][dD][dA][dT][dK][dT][dF][dT][dV][dT][dE]; disulfide 15-32 (inferred); not fully specified) [RFX002]
- binding to D-VEGF in presence of denaturant (D-VEGF [3]): bind specifically
- melting temperature (Tm) [4]: 66.9 °C

Substance: TYKLILNGKTLKGETTTEAVDFYYAFSVFFSYASSNSSDYVSWTYDDATKTFTVTE [Clone B03]
- phage binding to L-VEGF in the presence of D-peptides (D-v114, D-v128a) (L-VEGF): do not inhibit

Substance: TYKLILNGKTLKGEFTLEAVDLFDAFDVFFVYAASNFSFFDDWTYDDATKTFTVTE ([dT][dY][dK][dL][dI][dL][dN]G[dK][dT][dL][dK]G[dE][dF][dT][dL][dE][dA][dV][dD][dL][dF][dD][dA][dF][dD][dV][dF][dF][dV][dY][dA][dA][dS][dN][dF][dS][dF][dF][dD][dD][dW][dT][dY][dD][dD][dA][dT][dK][dT][dF][dT][dV][dT][dE]; not fully specified) [RFX025]
- binding to D-VEGF in presence of denaturant (D-VEGF [3]): bind specifically
- melting temperature (Tm) [4]: 66.6 °C
